As usually defined, the IC50 is the concentration that gives 50% inhibition. Lower therefore signals inhibition by little substance. A word on the CC50: it is the concentration that lowers cell viability or growth by half. Lower therefore signals greater toxicity to the cells.

Data set [1] deals with RD cells. Kind of data set: Cytotoxicity of medicines by CCK-8. Format: cell-based, human. The following applies: 48 h.
The test system of data set [2] is EV71. Kind of data set: Inhibition of cell death caused by EV71 infection. In kind it is cell-based, Enterovirus 71. Particulars: Enterovirus A, EV71, RD, 48 h.
Data set [3] has as its system EV71. Particulars: Vero cells pretreated with 200 μM before infection; cited from earlier work.
Data set [4] can be described thus: Cytotoxicity of medicines by CCK-8. Format: cell-based, human. The following applies: human, RD cells.

≈ marks a conversion by molar mass, not a printed value.

`O=c1c(O[C@@H]2O[C@H](CO)[C@@H](O)[C@H](O)[C@H]2O)c(-c2ccc(O)cc2)oc2cc(O)cc(O)c12` [Astragalin]: the MNTC in data set [1] came out at 200.00 µg/mL.
Compound `O=C(O)/C=C/c1ccc(O)c(O)c1` [Caffeic acid] displayed an MNTC in data set [1] of 50.00 µg/mL.
Still for that read-out and setting: the value for `O=C(/C=C/c1ccc(O)c(O)c1)O[C@H]1[C@H](O)C[C@](O)(C(=O)O)C[C@H]1O` [Cryptochlorogenic acid, cryptochlorogenic acid] was 100.00 µg/mL.
The same measure, in the same setting: the value for `O=C(O)c1cc(O)c(O)c(O)c1` [Gallic acid, gallic acid] was 6.25 µg/mL; that for `O=c1c(O[C@@H]2O[C@H](CO)[C@H](O)[C@H](O)[C@H]2O)c(-c2ccc(O)c(O)c2)oc2cc(O)cc(O)c12` [Hyperoside] was 200.00 µg/mL.
As for `O=C(/C=C/c1ccc(O)c(O)c1)O[C@H](Cc1ccc(O)c(O)c1)C(=O)O` [Rosmarinic acid, rosmarinic acid], in data set [1], the MNTC was determined as 50.00 µg/mL. The compound also displayed a 50% inhibitory concentration (IC50) in data set [2] of 11.9 µg/mL (≈ 33 µM).
In the case of `C[C@@H]1O[C@@H](OC[C@H]2O[C@@H](Oc3c(-c4ccc(O)c(O)c4)oc4cc(O)cc(O)c4c3=O)[C@H](O)[C@@H](O)[C@@H]2O)[C@H](O)[C@H](O)[C@H]1O` [Rutin, rutin], the MNTC in data set [1] was determined as 200.00 µg/mL. Besides, the “EV71-induced CPE and viral replication” value in data set [3] is “significantly suppress”.
As for `NC(=O)c1ncn([C@@H]2O[C@H](CO)[C@@H](O)[C@H]2O)n1` [ribavirin, Ribavirin, reference compound], the CC50 at 48 h in data set [4] stood at 2430 µg/mL (≈ 9950 µM). Further, the “MNTC (maximum non-toxic concentration)” value in data set [1] (cell survival rate ≥ 90%) was 1 mg/mL. This compound also gave an IC50 in data set [2] of 290 µg/mL (≈ 1190 µM).
